The text below walks through data of US20220177508A1, “C10-Cyclic Substituted 13-Membered Macrolides and Uses Thereof” (Zikani Therapeutics, Inc., priority 2018, published 2022).

Values after ≈ are worked out from the molar mass of the structure shown.

What all share (format): cell-based
One test has as its system S. aureus MP-12. As to the kind of experiment: Broth dilution MIC determination (CLSI), S. aureus MP-12. The conditions noted are these: strain MP-12, broth dilution; for MIC: Staphylococcus aureus, MP12.
Another test relates to K. pneumoniae MP-546. Put plainly: Broth dilution MIC determination (CLSI), K. pneumoniae MP-546. The conditions noted are these: strain MP-546, broth dilution; for MIC: Klebsiella pneumoniae, MP546.
For another test, the system named is P. aeruginosa MP-3. Put plainly: Broth dilution MIC determination (CLSI), P. aeruginosa MP-3. The conditions noted are these: strain MP-3, broth dilution; for MIC: Pseudomonas aeruginosa, MP3.
Another test concerns E. coli MP-4. As to the kind of experiment: Broth dilution MIC determination (CLSI), E. coli MP-4. The conditions noted are these: strain MP-4, broth dilution; for MIC: Escherichia coli, MP4, read-out: MIC E. coli MP-4.
The subject of a further test is K. pneumoniae MP-648. Put plainly: Broth dilution MIC determination (CLSI), K. pneumoniae MP-648. The conditions noted are these: strain MP-648, broth dilution; for MIC: Klebsiella pneumoniae, MP648.
In a further test the test system is A. baumannii MP-15. As to the kind of experiment: Broth dilution MIC determination (CLSI), A. baumannii MP-15. The conditions noted are these: strain MP-15, broth dilution; for MIC: Acinetobacter baumannii, MP15, read-out: MIC A. baumanii MP-15.

Take `CO[C@]1(C)C[C@@H](C)CN(C)[C@H]([C@H]2C[C@H](N(C)CC3CC3)C2)COC(=O)C(C)(C)C(=O)[C@H](C)[C@H]1O[C@@H]1O[C@H](C)C[C@H](N(C)C)[C@H]1O` [Compound 24, (3R,6R,8R,9R,10R)-3-((1r,3R)-3-((cyclopropylmethyl)(methyl)amino)cyclobutyl)-9-(((2S,3R,4S,6R)-4-(dimethylamino)-3-hydroxy-6-methyltetrahydro-2H-pyran-2-yl)oxy)-8-methoxy-4,6,8,10,12,12-hexamethyl-1-oxa-4-azacyclotridecane-11,13-dione]: the MIC was 4 to 32 µg/mL (≈ 6.27 to 50.2 µM) against S. aureus MP-12; less than 4 µg/mL in the test on K. pneumoniae MP-546; greater than 32 µg/mL in the test with P. aeruginosa MP-3; less than 4 µg/mL in the test on E. coli MP-4; less than 4 µg/mL in the test on K. pneumoniae MP-648; greater than 32 µg/mL in the test on A. baumannii MP-15.
For the compound `CO[C@]1(C)C[C@@H](C)CN(C)[C@H](C2CC(N(C)CC(C)C)C2)COC(=O)C(C)(C)C(=O)[C@H](C)[C@H]1O[C@@H]1O[C@H](C)C[C@H](N(C)C)[C@H]1O` (stereo partly drawn) [Compound 187, (3R,6R,8R,9R,10R)-9-(((2S,3R,4S,6R)-4-(dimethylamino)-3-hydroxy-6-methyltetrahydro-2H-pyran-2-yl)oxy)-3-((1S,3S)-3-(isobutyl(methyl)amino)cyclobutyl)-8-methoxy-4,6,8,10,12,12-hexamethyl-1-oxa-4-azacyclotridecane-11,13-dione], the “MIC S. aureus MP-12” value against S. aureus MP-12 was “+ (values greater than 32 mg/L)”. In addition, the “MIC K. pneumoniae MP-546” value against K. pneumoniae MP-546 was “+++ (values less than or equal to 4 mg/L)”. In addition, the “MIC P aeruginosa MP-3” value with P. aeruginosa MP-3 is “+ (values greater than 32 mg/L)”. The “MIC E. coli MP-4” value against E. coli MP-4 was “+++ (values less than or equal to 4 mg/L)”. For the same compound, the “MIC K. pneumoniae MP-648” value in the test with K. pneumoniae MP-648 was “++ (values of greater than 4 mg/L and less than or equal to 32 mg/L)”. The “MIC A. baumanii MP-15” value in the test on A. baumannii MP-15 was “+ (values greater than 32 mg/L)”.
Take `COCC(C)N1CCC([C@H]2COC(=O)C(C)(C)C(=O)[C@H](C)[C@@H](O[C@@H]3O[C@H](C)C[C@H](N(C)C)[C@H]3O)[C@](C)(OC)C[C@@H](C)CN2C)CC1` (stereo partly drawn) [Compound 124, (3S,6R,8R,9R,10R)-9-(((2S,3R,4S,6R)-4-(dimethylamino)-3-hydroxy-6-methyltetrahydro-2H-pyran-2-yl)oxy)-8-methoxy-3-(1-(1-methoxypropan-2-yl)piperidin-4-yl)-4,6,8,10,12,12-hexamethyl-1-oxa-4-azacyclotridecane-11,13-dione]: the MIC with S. aureus MP-12 is 4 to 32 µg/mL (≈ 6.1 to 48.8 µM); in the test with K. pneumoniae MP-546, less than 4 µg/mL; against P. aeruginosa MP-3, greater than 32 µg/mL; in the test with E. coli MP-4 it was less than 4 µg/mL; in the test on K. pneumoniae MP-648, 4 to 32 µg/mL (≈ 6.1 to 48.8 µM); with A. baumannii MP-15 it was greater than 32 µg/mL.
Take `CO[C@]1(C)C[C@@H](C)CN(C)[C@H](C2CN(C(=O)CNC(C)(C)C)C2)COC(=O)C(C)(C)C(=O)[C@H](C)[C@H]1O[C@@H]1O[C@H](C)C[C@H](N(C)C)[C@H]1O` [Compound 41, (3R,6R,8R,9R,10R)-3-(1-(tert-butylglycyl)azetidin-3-yl)-9-(((2S,3R,4S,6R)-4-(dimethylamino)-3-hydroxy-6-methyltetrahydro-2H-pyran-2-yl)oxy)-8-methoxy-4,6,8,10,12,12-hexamethyl-1-oxa-4-azacyclotridecane-11,13-dione]: the minimum inhibitory concentration (MIC) in the test on S. aureus MP-12 was 4 to 32 µg/mL (≈ 5.98 to 47.8 µM); in the test on K. pneumoniae MP-546, less than 4 µg/mL; in the test on P. aeruginosa MP-3, greater than 32 µg/mL; in the test on E. coli MP-4 it was less than 4 µg/mL; against K. pneumoniae MP-648, 4 to 32 µg/mL (≈ 5.98 to 47.8 µM); with A. baumannii MP-15, greater than 32 µg/mL.
For the compound `CO[C@]1(C)C[C@@H](C)CN(C)[C@H]([C@H]2C[C@@H](N(C)CC3CCCO3)C2)COC(=O)C(C)(C)C(=O)[C@H](C)[C@H]1O[C@@H]1O[C@H](C)C[C@H](N(C)C)[C@H]1O` (stereo partly drawn) [Compound 31, (3R,6R,8R,9R,10R)-9-(((2S,3R,4S,6R)-4-(dimethylamino)-3-hydroxy-6-methyltetrahydro-2H-pyran-2-yl)oxy)-8-methoxy-4,6,8,10,12,12-hexamethyl-3-((1s,3S)-3-(methyl((tetrahydrofuran-2-yl)methyl)amino)cyclobutyl)-1-oxa-4-azacyclotridecane-11,13-dione], the minimal inhibitory concentration (MIC) in the test with S. aureus MP-12 is greater than 32 µg/mL; in the test with K. pneumoniae MP-546, less than 4 µg/mL; in the test with P. aeruginosa MP-3 it was greater than 32 µg/mL; in the test on E. coli MP-4 it was less than 4 µg/mL; with K. pneumoniae MP-648, 4 to 32 µg/mL (≈ 5.99 to 47.9 µM); in the test with A. baumannii MP-15 it was greater than 32 µg/mL.
For the compound `CO[C@]1(C)C[C@@H](C)CN(C)[C@H](C2CN(C(=O)[C@@H]3CCN(C)C3)C2)COC(=O)C(C)(C)C(=O)[C@H](C)[C@H]1O[C@@H]1O[C@H](C)C[C@H](N(C)C)[C@H]1O` [Compound 111, (3R,6R,8R,9R,10R)-9-(((2S,3R,4S,6R)-4-(dimethylamino)-3-hydroxy-6-methyltetrahydro-2H-pyran-2-yl)oxy)-8-methoxy-4,6,8,10,12,12-hexamethyl-3-(1-((R)-1-methylpyrrolidine-3-carbonyl)azetidin-3-yl)-1-oxa-4-azacyclotridecane-11,13-dione], the MIC is 4 to 32 µg/mL (≈ 6 to 48 µM) in the test with S. aureus MP-12; 4 to 32 µg/mL (≈ 6 to 48 µM) against K. pneumoniae MP-546; greater than 32 µg/mL against P. aeruginosa MP-3; 4 to 32 µg/mL (≈ 6 to 48 µM) in the test with E. coli MP-4; 4 to 32 µg/mL (≈ 6 to 48 µM) in the test on K. pneumoniae MP-648; greater than 32 µg/mL with A. baumannii MP-15.
As to `CO[C@]1(C)C[C@@H](C)CN(C)[C@@H](C2CCN(CC3CC3)CC2)COC(=O)C(C)(C)C(=O)[C@H](C)[C@H]1O[C@@H]1O[C@H](C)C[C@H](N(C)C)[C@H]1O` [Compound 108, (3S,6R,8R,9R,10R)-3-(1-(cyclopropylmethyl)piperidin-4-yl)-9-(((2S,3R,4S,6R)-4-(dimethylamino)-3-hydroxy-6-methyltetrahydro-2H-pyran-2-yl)oxy)-8-methoxy-4,6,8,10,12,12-hexamethyl-1-oxa-4-azacyclotridecane-11,13-dione], the minimum inhibitory concentration (MIC) is 4 to 32 µg/mL (≈ 6.27 to 50.2 µM) in the test on S. aureus MP-12; less than 4 µg/mL against K. pneumoniae MP-546; greater than 32 µg/mL in the test on P. aeruginosa MP-3; less than 4 µg/mL in the test on E. coli MP-4; less than 4 µg/mL with K. pneumoniae MP-648; greater than 32 µg/mL in the test with A. baumannii MP-15.
Turning to `CO[C@]1(C)C[C@@H](C)CN(C)[C@H](C2CN(C(=O)CCCN(C)CC3CC3)C2)COC(=O)C(C)(C)C(=O)[C@H](C)[C@H]1O[C@@H]1O[C@H](C)C[C@H](N(C)C)[C@H]1O` [Compound 61, (3R,6R,8R,9R,10R)-3-(1-(4-((cyclopropylmethyl)(methyl)amino)butanoyl)azetidin-3-yl)-9-(((2S,3R,4S,6R)-4-(dimethylamino)-3-hydroxy-6-methyltetrahydro-2H-pyran-2-yl)oxy)-8-methoxy-4,6,8,10,12,12-hexamethyl-1-oxa-4-azacyclotridecane-11,13-dione], the minimal inhibitory concentration (MIC) with S. aureus MP-12 was greater than 32 µg/mL; in the test on K. pneumoniae MP-546, 4 to 32 µg/mL (≈ 5.64 to 45.1 µM); in the test with P. aeruginosa MP-3, greater than 32 µg/mL; with E. coli MP-4, 4 to 32 µg/mL (≈ 5.64 to 45.1 µM); against K. pneumoniae MP-648, greater than 32 µg/mL; in the test on A. baumannii MP-15 it was greater than 32 µg/mL.
With `CO[C@]1(C)C[C@@H](C)CN(C)[C@H]([C@H]2C[C@@H](N(C)CC3CC3)C2)COC(=O)C(C)(C)C(=O)[C@H](C)[C@H]1O[C@@H]1O[C@H](C)C[C@H](N(C)C)[C@H]1O` [Compound 18, (3R,6R,8R,9R,10R)-3-((1s,3S)-3-((cyclopropylmethyl)(methyl)amino)cyclobutyl)-9-(((2S,3R,4S,6R)-4-(dimethylamino)-3-hydroxy-6-methyltetrahydro-2H-pyran-2-yl)oxy)-8-methoxy-4,6,8,10,12,12-hexamethyl-1-oxa-4-azacyclotridecane-11,13-dione], the MIC with S. aureus MP-12 was greater than 32 µg/mL; against K. pneumoniae MP-546, 4 to 32 µg/mL (≈ 6.27 to 50.2 µM); in the test with P. aeruginosa MP-3, greater than 32 µg/mL; with E. coli MP-4, less than 4 µg/mL; against K. pneumoniae MP-648, 4 to 32 µg/mL (≈ 6.27 to 50.2 µM); in the test on A. baumannii MP-15, greater than 32 µg/mL.
On to `CO[C@]1(C)C[C@@H](C)CN(C)[C@H](C2CN(CC3CCOC3)C2)COC(=O)C(C)(C)C(=O)[C@H](C)[C@H]1O[C@@H]1O[C@H](C)C[C@H](N(C)C)[C@H]1O` (stereo partly drawn) [Compound 127, (3R,6R,8R,9R,10R)-9-(((2S,3R,4S,6R)-4-(dimethylamino)-3-hydroxy-6-methyltetrahydro-2H-pyran-2-yl)oxy)-8-methoxy-4,6,8,10,12,12-hexamethyl-3-(1-((tetrahydrofuran-3-yl)methyl)azetidin-3-yl)-1-oxa-4-azacyclotridecane-11,13-dione], for which the minimal inhibitory concentration (MIC) was 4 to 32 µg/mL (≈ 6.25 to 50 µM) in the test with S. aureus MP-12; 4 to 32 µg/mL (≈ 6.25 to 50 µM) in the test with K. pneumoniae MP-546; greater than 32 µg/mL against P. aeruginosa MP-3; less than 4 µg/mL with E. coli MP-4; 4 to 32 µg/mL (≈ 6.25 to 50 µM) in the test with K. pneumoniae MP-648; greater than 32 µg/mL in the test on A. baumannii MP-15.
For the compound `CO[C@]1(C)C[C@@H](C)CN(C)[C@H](C2CN(C(=O)CCCN(C)C)C2)COC(=O)C(C)(C)C(=O)[C@H](C)[C@H]1O[C@@H]1O[C@H](C)C[C@H](N(C)C)[C@H]1O` [Compound 139, (3R,6R,8R,9R,10R)-9-(((2S,3R,4S,6R)-4-(dimethylamino)-3-hydroxy-6-methyltetrahydro-2H-pyran-2-yl)oxy)-3-(1-(4-(dimethylamino)butanoyl)azetidin-3-yl)-8-methoxy-4,6,8,10,12,12-hexamethyl-1-oxa-4-azacyclotridecane-11,13-dione], the MIC is greater than 32 µg/mL with S. aureus MP-12; greater than 32 µg/mL in the test with K. pneumoniae MP-546; greater than 32 µg/mL against P. aeruginosa MP-3; 4 to 32 µg/mL (≈ 5.98 to 47.8 µM) in the test on E. coli MP-4; greater than 32 µg/mL against K. pneumoniae MP-648; greater than 32 µg/mL in the test on A. baumannii MP-15.
